Results as given in ChEMBL document CHEMBL1201862, “PubChem BioAssay data set” (2004).
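Dose response: 5 concentrations. Exposure: 48 h. Format: 96-well plates. Endpoint: linear interpolation; highest concentration if not reached. At the GI50, growth is halved.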 Activity calls are given as the source filed them. Cut-off read from the data, not from the text of the source: active = GI50 up to about 1.1 µM and inactive = higher.

Tests used:
Assay in all cases: NCI anticancer screen, dose series, 48 h
[1] = system: UACC-62
[2] = system: NCI-H522
[3] = system: NCI/ADR-RES
[4] = system: RPMI-8226
[5] = system: EKVX
[6] = system: OVCAR-5
[7] = system: CCRF-CEM
[8] = system: SK-MEL-28
[9] = system: OVCAR-4
[10] = system: HL-60
[11] = system: HT-29
[12] = system: COLO 205
[13] = system: Hs-578T
[14] = system: PC-3
[15] = system: A549
[16] = system: SF-268
[17] = system: Malme-3M
[18] = system: OVCAR-3
[19] = system: MCF7
[20] = system: SF-295
[21] = system: SK-MEL-5
[22] = system: TK-10
[23] = system: IGROV-1
[24] = system: U-251
[25] = system: SF-539
[26] = system: CAKI-1
[27] = system: A498
[28] = system: HCT-116
[29] = system: LOX IMVI
[30] = system: MOLT-4
[31] = system: HCT-15
[32] = system: K562
[33] = system: 786-0
[34] = system: SNB-75
[35] = system: DU-145
[36] = system: SW-620
[37] = system: SK-MEL-2
[38] = system: ACHN
[39] = system: NCI-H460
[40] = system: SN12C
[41] = system: M14
[42] = system: KM12
[43] = system: HOP-62
[44] = system: T47D
[45] = system: UO-31
[46] = system: MDA-MB-231
[47] = system: SK-OV-3
[48] = system: MDA-N
[49] = system: MDA-MB-435
[50] = system: NCI-H23
[51] = system: HCC 2998
[52] = system: NCI-H226
[53] = system: OVCAR-8
[54] = system: SR
[55] = system: BT-549
[56] = system: SNB-19
[57] = system: RXF 393
[58] = system: UACC-257
[59] = system: HOP-92

Measured: GI50

O=C(c1ccccc1Br)C(F)(F)F
inactive: [1] > 100 µM | [2] > 100 µM | [3] > 100 µM | [4] > 100 µM | [5] > 100 µM | [6] > 100 µM | [7] > 100 µM | [8] > 100 µM | [9] > 100 µM | [10] > 100 µM | [11] > 100 µM | [12] 88.9 µM | [13] > 100 µM | [14] > 100 µM | [15] > 100 µM | [16] > 100 µM | [17] > 100 µM | [18] > 100 µM | [19] > 100 µM | [20] > 100 µM | [21] > 100 µM | [22] > 100 µM | [23] > 100 µM | [24] > 100 µM | [25] > 100 µM | [26] > 100 µM | [27] > 100 µM | [28] > 100 µM | [29] > 100 µM | [30] > 100 µM | [32] > 100 µM | [33] > 100 µM | [34] > 100 µM | [35] > 100 µM | [36] > 100 µM | [37] > 10 µM | [38] > 100 µM | [39] > 100 µM | [40] > 100 µM | [41] > 100 µM | [42] > 100 µM | [43] > 100 µM | [44] 48.5 µM | [45] > 100 µM | [46] > 100 µM | [47] > 100 µM | [48] > 100 µM | [49] > 100 µM | [50] > 100 µM | [51] > 100 µM | [52] > 100 µM | [53] > 100 µM | [54] > 100 µM | [55] > 100 µM | [56] > 100 µM
> 100 µM: [31]

O=C(O)[C@@H]1CSCN1C(=O)[C@@H]1CCC(=S)N1
inactive: [1] > 10 µM | [2] > 100 µM | [3] > 100 µM | [4] > 100 µM | [6] > 100 µM | [7] > 100 µM | [8] > 100 µM | [10] > 100 µM | [11] > 100 µM | [13] > 100 µM | [14] > 100 µM | [15] > 100 µM | [16] > 100 µM | [17] > 100 µM | [18] > 100 µM | [19] > 100 µM | [20] > 100 µM | [21] > 100 µM | [22] > 100 µM | [23] > 100 µM | [25] > 100 µM | [26] > 100 µM | [27] > 100 µM | [29] > 100 µM | [30] > 100 µM | [32] > 100 µM | [33] > 100 µM | [34] > 100 µM | [57] > 100 µM | [35] > 100 µM | [36] > 100 µM | [37] > 100 µM | [38] > 100 µM | [39] > 100 µM | [40] > 100 µM | [41] > 100 µM | [42] > 100 µM | [43] > 100 µM | [44] > 100 µM | [45] > 100 µM | [46] > 100 µM | [47] > 100 µM | [48] > 100 µM | [58] > 100 µM | [49] > 100 µM | [50] > 100 µM | [51] > 100 µM | [52] > 100 µM | [53] > 100 µM | [54] > 100 µM | [55] > 100 µM | [56] > 100 µM
> 100 µM: [31]

CN1C(=O)c2cccc3cc([N+](=O)[O-])cc(c23)C1=O
> 10 µM: [31]
inactive: [1] > 10 µM | [2] 5.65 µM | [3] > 10 µM | [4] > 10 µM | [6] > 10 µM | [7] > 10 µM | [8] > 10 µM | [9] > 10 µM | [10] > 10 µM | [11] > 10 µM | [12] > 10 µM | [13] > 10 µM | [14] > 10 µM | [15] > 10 µM | [16] 9.25 µM | [17] > 10 µM | [18] > 10 µM | [19] 4.05 µM | [20] > 10 µM | [21] > 10 µM | [22] > 10 µM | [23] > 10 µM | [24] > 10 µM | [25] > 10 µM | [26] > 10 µM | [28] 8.61 µM | [29] > 10 µM | [30] 5.04 µM | [32] > 10 µM | [33] > 10 µM | [34] > 10 µM | [35] > 10 µM | [36] > 10 µM | [38] > 10 µM | [40] > 10 µM | [41] > 10 µM | [42] > 10 µM | [59] > 10 µM | [43] > 10 µM | [44] > 10 µM | [46] > 10 µM | [47] > 10 µM | [48] > 10 µM | [58] > 10 µM | [49] > 10 µM | [50] 9.08 µM | [51] > 10 µM | [53] > 10 µM | [54] > 10 µM | [55] > 10 µM | [56] > 10 µM
